Data set [1] concerns the target HIV-1 reverse transcriptase (RT). Nature of the data set: Competitive inhibition of HIV-1 reverse transcriptase, poly(I)oligo(dC) template-primer. It counts as biochemical. The conditions noted are these: read-out: K1 (affinity), competitive inhibition. On the procedure:
(§1) Toxicity and pharmacokinetic studies confirm the usefulness of FTC as an antiviral agent for pharmaceutical administration. FTC and its enantiomers are nontoxic to peripheral human bone marrow cells at concentrations up to 50 µM and other cell lines at concentrations up to 200 µM. FTC-TP is a major intracellular metabolite in PBMC and HepG2 cells.

The subject of data set [2] is human PBM cells. Nature of the data set: Egress of radiolabeled FTC from human PBM cells. It counts as in vitro ADME. The conditions noted are these: 48 hours after the removal of the extracellular drug. On the procedure: This study measures the time needed for intracellular levels of triphosphates to decline. Studies were conducted in duplicate. Uninfected cells (2 x 10^6 ml) were suspended in the appropriate medium supplemented with serum (10 ml per timepoint) and incubated at 37°C in a 5% CO2 incubator. The radiolabeled FTC concentration was 10 µM. After pulsing the cells with the labeled compound for 24 hours, the cells were thoroughly washed and then replenished with fresh medium without the antiviral drugs (0 hr). At 0, 2, 4, 6, 12, 24, and 48 hours (second incubation time), the cells were removed, and immediately extracted with 60% cold methanol/water. The extract was obtained by centrifugation and removal of the cell pellet. The extracts were lyophilized and then stored at -70°C. Prior to analysis, the material was resuspended in 250 microliters of HPLC buffer and immediately analyzed. Quantitation of intracellular parent drug and metabolic derivatives was conducted by HPLC, using either a Micromeritics or Hewlett-Packard model 1090 PHLC system with an anion exchange Partisel 10 SAX column (Whatman, Inc.), at a flow rate of 1 ml/min, 1 kpsi pressure, with UV detection at 262 nm. The mobile phase consisted of deionized water (A), 2 mM NaH2PO4/16 mM NaOAc (pH = 6.6) (B), 15 mM NaH2PO4/120.2 mM NaOAc (pH = 6.6) (C), and 100 mM NaH2PO4/800 mM NaOAc (pH = 6.6) (D). […]

The target of data set [3] is HIV-RT (Human immunodeficiency virus type 1 group M subtype B, UniProt P04585). Description: DNA chain termination by sequencing analysis. The format is biochemical. On the procedure: as §1

As to `Nc1nc(=O)n([C@@H]2CS[C@H](COP(=O)(O)OP(=O)(O)OP(=O)(O)O)O2)cc1F` (racemic) [FTC-TP], the Ki in data set [1] was found to be 200 nM. For the same compound, the intracellular concentration in data set [2] lay within 1 to 5 µM. Further, the “DNA chain terminator (C-stops)” value in data set [3] is listed as “potent DNA chain terminator”.
